Measurements: patent US7018992B2, “Hormone composition” (Novo Nordisk A/S, priority 2000, dated 2006)
Marks after values point to notes of the source that are not given here.

How the values were obtained:
endometrium = test: Endometrial biopsy at end of study, Example 3; format: in vivo, postmenopausal women
Description: (§1) Efficacy was measured with composite scores of vaginal symptoms (dryness, soreness, and irritation) and vaginal health (secretions, epithelial integrity, surface thickness, and pH). Vaginal and urethral cytology analyses were also performed, and the vaginal maturation value was determined. Safety assessments included endometrial biopsies.
(§2) All vaginal tablets were identical in appearance. Patients inserted 1 tablet daily for 14 days. Thereafter, patients inserted 1 tablet twice per week (Sunday and Thursday) for the remainder of the trial. Patients were to insert the tablets at the same time each day (preferably at bedtime). Patients were evaluated for efficacy and safety at Week—4 (screening), Week 0 (baseline), and Weeks 2, 7, and 12.
(§3) Vaginal and urethral cell samples were harvested and analyzed by independent cytologists to determine the percentages of parabasal, intermediate, and superficial cells. Maturation values were calculated according to the following equation: maturation value=1.0×[superficial cells, %]+0.5×[intermediate cells, %] Endometrial biopsies were performed at the end of the study in patients with intact uteri. The number of patients with abnormal biopsies was compared between treatment groups.

[1] = test system: superficial vaginal cells; test: Vaginal cytology, percentage of superficial cells, Example 3; format: in vivo, postmenopausal women
Description: as §1, §2, §3

[2] = test system: superficial urethral cells; test: Urethral cytology, percentage of superficial cells, Example 3; format: in vivo, postmenopausal women
Description: as §1, §2, §3

[3] = test system: postmenopausal women with atrophic vaginitis; test: Patients with vaginal pH values below 5.5, Example 3; format: in vivo
Description: as §1, §2
Investigators used a severity scale of none, mild, moderate, or severe to assess vaginal health characteristics (secretions, epithelial integrity, surface thickness, color, and pH). Severity categories were assigned ascending scores from 0 (none) to 3 (severe) for analysis. To avoid multiple endpoint issues, composite scores were defined. A composite score for vaginal health was defined as the average of the individual vaginal health characteristic scores. The composite score and the change from baseline for the composite score were examined at each time point. Differences within and between treatment groups were analyzed using an analysis of variance (ANOVA).

[4] = test system: superficial vaginal and urethral cells; test: Subjects by percentages of both superficial vaginal and urethral cells, Example 3; format: in vivo, postmenopausal women
Description: as §2, §3

[5] = test system: follicle stimulating hormone (FSH); test: Serum FSH concentration (immunoradiometric assay), Example 2; format: in vivo, postmenopausal women; conditions: 25 μg E2, Week 12
Description: (§4) Maturation values of vaginal mucosal cells were assessed as an indicator of changes in the condition of the vaginal mucosa in response to treatment.
(§5) Upon presentation to the clinic for each visit, a vaginal cytology specimen was obtained. Patients then inserted the tablets. […] The blood samples obtained at 30 minutes before insertion, and at 6, 12, and 24 hours after insertion were also used to determine the FSH concentration via immunoradiometric assay.
Data for area under the curve and maximal concentration were converted to a logarithmic scale, and changes from first dose (at the baseline visit) in the logarithmic values were estimated using 95% confidence intervals derived from paired t-tests. […] Differences within treatment groups in FSH concentration were determined using the Wilcoxon signed rank test based on changes from baseline in mean concentrations at weeks 2 and 12. Mean concentrations were defined as the average concentrations obtained at 30 minutes before tablet insertion and 6, 12, and 24 hours after insertion.

vaginal cells = test: Vaginal maturation value, Example 3; format: in vivo, postmenopausal women; conditions: 25 or 10 μg E2 (active treatment groups), Week 12
Description: as §1, §2, §3

vaginal mucosal cells = test: Maturation value of vaginal mucosal cells, Example 2; format: in vivo, postmenopausal women
Description: as §4
After the screening visit, patients received no study treatment during the 4-week run-in period prior to the baseline visit. […] The vaginal tablets were identical in appearance. Patients inserted 1 tablet intravaginally, once daily for the initial 2 weeks of the study and then twice per week (Sunday and Thursday) for the remaining 10 weeks. Patients were instructed to use their medication at a consistent time each day, preferably in the morning.
as §5
The maturation value of vaginal mucosal cells was calculated from the percentages of parabasal, intermediate, and superficial cells according to the following equation: maturation value=0×[parabasal cells, %]+0.5×[intermediate cells, %]+1.0×[superficial cells, %]

C[C@]12CC[C@@H]3c4ccc(O)cc4CC[C@H]3[C@@H]1CC[C@@H]2O [E2, 17β-estradiol]
Endometrial biopsy result Abnormal (hyperplasia or carcinoma), number of patients (endometrium; 10 μg E2, Week 12, N = 32): 0
Endometrial biopsy result Abnormal (hyperplasia or carcinoma), percentage of patients (endometrium; 10 μg E2, Week 12, N = 32): 0.0%
Endometrial biopsy result Abnormal (hyperplasia or carcinoma), percentage of patients (endometrium; 25 μg E2, Week 12, N = 32): 3.1%
Mean percentage of superficial vaginal cells ([1]; 10 μg E2, Week 0): 3.1%
Mean change from baseline in percentage of superficial vaginal cells ([1]; 10 μg E2, Week 2): 25.0^a %
Mean percentage of superficial vaginal cells ([1]; 25 μg E2, Week 0): 4.0%
Mean percentage of superficial urethral cells ([2]; 10 μg E2, Week 0): 2.5%
Mean change from baseline in percentage of superficial urethral cells ([2]; 10 μg E2, Week 12): 6.8%
Mean percentage of superficial urethral cells ([2]; 10 μg E2, Week 12): 9.5%
Mean percentage of superficial urethral cells ([2]; 25 μg E2, Week 0): 3.2%
Mean change from baseline in percentage of superficial urethral cells ([2]; 25 μg E2, Week 12): 7.5%
Mean percentage of superficial urethral cells ([2]; 25 μg E2, Week 12): 11.2%
Number of patients with vaginal pH values below 5.5 ([3]; 10 μg E2, Week 0): 27/89
Number of patients with vaginal pH values below 5.5 ([3]; 10 μg E2, Week 2): 67/84
Number of patients with vaginal pH values below 5.5 ([3]; 10 μg E2, Week 7): 57/80
Number of patients with vaginal pH values below 5.5 ([3]; 10 μg E2, Week 12): 54/71
Number of patients with vaginal pH values below 5.5 ([3]; 25 μg E2, Week 0): 31/90
Number of patients with vaginal pH values below 5.5 ([3]; 25 μg E2, Week 2): 64/87
Number of patients with vaginal pH values below 5.5 ([3]; 25 μg E2, Week 7): 71/83
Percentage of patients with vaginal pH values below 5.5 ([3]; 25 μg E2, Week 7): 85.5%
Number of patients with vaginal pH values below 5.5 ([3]; 25 μg E2, Week 12): 63/79
Percentage of patients with vaginal pH values below 5.5 ([3]; 25 or 10 μg E2 (active treatment groups), Week 12): 75%
Number of subjects with both superficial vaginal and urethral cells less than or equal to 5% ([4]; 10 μg E2, Week 0): 53 subjects
Number of subjects with increases in percentages of both superficial vaginal and urethral cells ([4]; 10 μg E2, Week 12): 44 subjects
Number of subjects with both superficial vaginal and urethral cells less than or equal to 5% ([4]; 25 μg E2, Week 0): 57 subjects
Number of subjects with increases in percentages of both superficial vaginal and urethral cells ([4]; 25 μg E2, Week 12): 52 subjects
Number of patients with mean FSH concentrations below 35 [5]: 3 patients
Maturation value (vaginal cells): approximately 60%
Mean maturation value (vaginal mucosal cells; 10 μg E2, Week 0 (baseline), mean ± SD): 51.0
Number of patients with increases in maturation values from baseline (vaginal mucosal cells; 10 μg E2, Week 12): 14 patients
Number of patients with increases in maturation values from baseline (vaginal mucosal cells; 25 μg E2, Week 12): 13 patients
Mean change from baseline in maturation value (vaginal mucosal cells; 25 μg E2, Week 12, mean ± SD, P ≦ .01): 7.0 ± 8.7^b
